In brackets after ≈: the same amount, converted by molar mass. Activity calls are given as the source filed them. The rule behind the calls is not given here.
Assays:
Escherichia coli [1] = assay: Antibacterial activity against Escherichia coli NCIM 2931 incubated for 12 hr followed by subculturing measured after 24 hr by colony counting method; assay type: functional
Escherichia coli [2] = assay: Antibacterial activity against Escherichia coli NCIM 2931 after 12 hr by resazurin reduction assay; assay type: functional; details: NCIM 2931, 12 h
Bacillus subtilis [3] = assay: Induction of ROS production in Bacillus subtilis NCIM 2063 at MIC50 concentration after 3 hr by DCFH-DA-based fluorimetric analysis; assay type: functional, organism-based
Pseudomonas aeruginosa [4] = assay: Antiquorum-sensing activity against Pseudomonas aeruginosa PAO1 cells assessed as scattered cells at 25 ug/ml after 18 hr by scanning electron microscopic analysis; assay type: functional, organism-based
Pseudomonas aeruginosa [5] = assay: Antiquorum-sensing activity against Pseudomonas aeruginosa PAO1 cells assessed as decrease in biofilm formation at 25 to 100 ug/ml after 18 hr by crystal violet staining method; assay type: functional, organism-based
Bacillus subtilis [6] = assay: Antibacterial activity against Bacillus subtilis NCIM 2063 after 12 hr by resazurin reduction assay; assay type: functional; details: NCIM 2063, 12 h
Bacillus subtilis [7] = assay: Induction of ROS production in Bacillus subtilis NCIM 2063 assessed as morphological changes at MIC50 concentration after 3 hr by scanning electron microscopic analysis; assay type: functional, organism-based
Pseudomonas aeruginosa [8] = assay: Bactericidal activity against Pseudomonas aeruginosa PAO1 after 18 hr by crystal violet staining method; assay type: functional, organism-based
Bacillus subtilis [9] = assay: Antibacterial activity against Bacillus subtilis NCIM 2063 incubated for 12 hr followed by subculturing measured after 24 hr by colony counting method; assay type: functional

- MIC (Escherichia coli [2]): 500 µg/mL (≈ 2420 µM)
- MIC (Bacillus subtilis [6]): 250 µg/mL (≈ 1210 µM)
SMILES: COc1ccccc1-c1csc(N)n1
- MBC (Escherichia coli [1]): 500 µg/mL (≈ 2420 µM)
- Activity (Bacillus subtilis [3]): inactive
- Activity (Pseudomonas aeruginosa [4]): Active
- Activity (Pseudomonas aeruginosa [5]): Active
- Activity (Bacillus subtilis [7]): inactive
- Activity (Pseudomonas aeruginosa [8]): Active
- MBC (Bacillus subtilis [9]): 250 µg/mL (≈ 1210 µM)
